Legend:
mouse splenocytes = experiment: Inhibition of B Cell Activation as Measured by CD69 Expression in Mouse Splenocytes; assay type: cell-based; conditions: Splenocyte; C57/BL6 splenocytes, 3 ug/mL goat anti-mouse IgM, 18-20 hrs, CD69+ve cells within CD19; read-out: Mouse spleenocyte IC50
Description: Inhibition of B Cell Activation as Measured by CD69 Expression in Mouse Splenocytes:
To test the effect of BTK inhibitors in suppressing B-cell receptor (BCR) mediated activation of B cells, we developed a flow cytometry based assay to analyze CD69 expression in B cell population among total splenocyte from the mouse. […] Finally, cell were cultured in RPMI medium with 10% FBS.
Test compounds were diluted half log starting from 2 mM in 100% DMSO (200×). 1×10^5 splenocytes were incubated with 1 uL of diluted test compounds in 200 uL culture medium in a U-bottom 96 well plate (Greiner) at 37° C. with 5% CO2 for 30 mins. Control wells received 1 uL of 100% DMSO without any compound. The cells were stimulated with 3 ug/mL goat anti-mouse IgM (Sigma, cat#M8644) and incubated for 18-20 hrs. […] Then the cells were washed 3 times with PBS with 1% FBS and analyzed by Guava Easycyte Mini flow cytometer system (Millipore). Flow cytometry data were analyzed using Weasel software (WEHI, Melbourne). First B cells were gated using CD19 markers. Then expression of CD69 was analyzed as percentage of CD69+ve cells within CD19. Percent activity for each data point was calculated using following formula: […]
Percentage activity was fit using sigmoid dose response with variable slope logistic equation in Graph-pad Prism 5 software to determine inhibition constant 50 (IC50).

[1] = molecular target: human Bruton's Tyrosine Kinase (Btk) (Homo sapiens (Human), UniProt Q06187); experiment: Recombinant Human Bruton's Tyrosine Kinase (Btk) Inhibition Assay (HTRF KinEASE-TK); assay type: biochemical; conditions: 20 ng/ml rhBtk, 77 μM ATP (KM), 1 μM TK-Biotin substrate, 90 min; read-out: hBTK IC50
Chain of human Bruton's Tyrosine Kinase (Btk) (Q06187 whole entry): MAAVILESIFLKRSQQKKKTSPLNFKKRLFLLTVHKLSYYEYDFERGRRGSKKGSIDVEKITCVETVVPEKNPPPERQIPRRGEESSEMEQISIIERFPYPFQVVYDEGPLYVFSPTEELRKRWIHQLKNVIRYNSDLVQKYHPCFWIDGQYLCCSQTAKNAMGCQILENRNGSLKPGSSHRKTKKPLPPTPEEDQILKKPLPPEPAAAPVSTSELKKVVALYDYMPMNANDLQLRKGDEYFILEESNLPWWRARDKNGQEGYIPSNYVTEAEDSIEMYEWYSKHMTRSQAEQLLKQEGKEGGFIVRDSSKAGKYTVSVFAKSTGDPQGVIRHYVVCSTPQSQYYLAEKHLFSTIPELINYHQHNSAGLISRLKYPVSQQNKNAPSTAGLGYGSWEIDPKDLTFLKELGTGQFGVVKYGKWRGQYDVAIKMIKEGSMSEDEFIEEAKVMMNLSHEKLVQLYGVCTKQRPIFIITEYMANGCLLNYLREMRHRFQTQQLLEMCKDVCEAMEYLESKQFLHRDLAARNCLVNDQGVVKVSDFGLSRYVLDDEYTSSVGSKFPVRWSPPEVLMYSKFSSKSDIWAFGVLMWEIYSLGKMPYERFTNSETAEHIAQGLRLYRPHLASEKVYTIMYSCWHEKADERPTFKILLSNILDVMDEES

Row | Compound | IC50 (mouse splenocytes) [nM] | IC50 [1] [nM]
1 | CS(=O)(=O)N1CCN(Cc2ccc(-c3cc4c(-c5cccc(N6CCOc7cc(C8CC8)ccc7C6=O)c5CO)ccnc4[nH]3)nc2)CC1 [Example I-6, 8-cyclopropyl-4-[2-(hydroxymethyl)-3-[2-[5-[(4-methylsulfonylpiperazin-1-yl)methyl]-2-pyridyl]-1H-pyrrolo[2,3-b]pyridin-4-yl]phenyl]-2,3-dihydro-1,4-benzoxazepin-5-one] | 36 | 3
2 | CC(C)N1CCN(Cc2ccc(-c3cc4c(-c5cccc(N6CCOc7cc(C8CC8)ccc7C6=O)c5CO)ccnc4[nH]3)nc2)CC1 [Example I-7, 8-cyclopropyl-4-[2-(hydroxymethyl)-3-[2-[5-[(4-isopropylpiperazin-1-yl)methyl]-2-pyridyl]-1H-pyrrolo[2,3-b]pyridin-4-yl]phenyl]-2,3-dihydro-1,4-benzoxazepin-5-one] | 21 | 2
3 | O=C1c2ccc(C3CC3)cc2OCCN1c1cccc(-c2ccnc3[nH]c(-c4ccc(CN5CCS(=O)(=O)CC5)cn4)cc23)c1CO [Example I-8, 8-cyclopropyl-4-[3-[2-[5-[(1,1-dioxo-1,4-thiazinan-4-yl)methyl]-2-pyridyl]-1H-pyrrolo[2,3-b]pyridin-4-yl]-2-(hydroxymethyl)phenyl]-2,3-dihydro-1,4-benzoxazepin-5-one] | 85 | 9
4 | O=C1c2ccc(C3CC3)cc2OCCN1c1cccc(-c2ccnc3[nH]c(-c4ccc(CN5CCN(CC(F)(F)F)CC5)cn4)cc23)c1CO [Example I-9, 8-cyclopropyl-4-[2-(hydroxymethyl)-3-[2-[5-[[4-(2,2,2-trifluoroethyl)piperazin-1-yl]methyl]-2-pyridyl]-1H-pyrrolo[2,3-b]pyridin-4-yl]phenyl]-2,3-dihydro-1,4-benzoxazepin-5-one] | 47 | 8
5 | O=C1c2ccc(C3CC3)cc2OCCN1c1cccc(-c2ccnc3[nH]c(-c4ccc(CN5CCN(S(=O)(=O)C6CC6)CC5)cn4)cc23)c1CO [Example I-10, 8-cyclopropyl-4-[3-[2-[5-[(4-cyclopropylsulfonylpiperazin-1-yl)methyl]-2-pyridyl]-1H-pyrrolo[2,3-b]pyridin-4-yl]-2-(hydroxymethyl)phenyl]-2,3-dihydro-1,4-benzoxazepin-5-one] | 31 | 7
6 | CCN1CCN(Cc2ccc(-c3cc4c(-c5cccc(N6CCOc7cc(C8CC8)cc(F)c7C6=O)c5CO)ccnc4[nH]3)nc2)CC1 [Example I-12, 8-cyclopropyl-4-[3-[2-[5-[(4-ethylpiperazin-1-yl)methyl]-2-pyridyl]-1H-pyrrolo[2,3-b]pyridin-4-yl]-2-(hydroxymethyl)phenyl]-6-fluoro-2,3-dihydro-1,4-benzoxazepin-5-one] | 46 | 2
7 | O=C1c2c(F)cc(C3CC3)cc2OCCN1c1cccc(-c2ccnc3[nH]c(-c4ccc(CN5CCN(C6COC6)CC5)cn4)cc23)c1CO [Example I-13, 8-cyclopropyl-6-fluoro-4-[2-(hydroxymethyl)-3-[2-[5-[[4-(oxetan-3-yl)piperazin-1-yl]methyl]-2-pyridyl]-1H-pyrrolo[2,3-b]pyridin-4-yl]phenyl]-2,3-dihydro-1,4-benzoxazepin-5-one] | 8 | 2
8 | CC1CN(Cc2ccc(-c3cc4c(-c5cccc(N6CCOc7cc(C8CC8)cc(F)c7C6=O)c5CO)ccnc4[nH]3)nc2)CC(C)N1C (stereo not shown) [Example I-14, 8-cyclopropyl-6-fluoro-4-[2-(hydroxymethyl)-3-[2-[5-[(3,4,5-trimethylpiperazin-1-yl)methyl]-2-pyridyl]-1H-pyrrolo[2,3-b]pyridin-4-yl]phenyl]-2,3-dihydro-1,4-benzoxazepin-5-one] | 7.5 | 1.7
9 | CN1CCN(Cc2ccc(-c3cc4c(-c5cccc(N6CCOc7cc(C8CC8)cc(F)c7C6=O)c5CO)ccnc4[nH]3)nc2)CC1=O [Example I-15, 8-cyclopropyl-6-fluoro-4-[2-(hydroxymethyl)-3-[2-[5-[(4-methyl-3-oxo-piperazin-1-yl)methyl]-2-pyridyl]-1H-pyrrolo[2,3-b]pyridin-4-yl]phenyl]-2,3-dihydro-1,4-benzoxazepin-5-one] | 18 | 1.5
10 | O=C1c2c(F)cc(C3CC3)cc2OCCN1c1cccc(-c2ccnc3[nH]c(-c4ccc(CN5CCN(CC(F)(F)F)CC5)cn4)cc23)c1CO [Example I-16, 8-cyclopropyl-6-fluoro-4-[2-(hydroxymethyl)-3-[2-[5-[[4-(2,2,2-trifluoroethyl)piperazin-1-yl]methyl]-2-pyridyl]-1H-pyrrolo[2,3-b]pyridin-4-yl]phenyl]-2,3-dihydro-1,4-benzoxazepin-5-one] | 7.7 | 1.6
11 | CN1CCC(F)(c2ccc(-c3cc4c(-c5cccc(N6CCOc7cc(C8CC8)ccc7C6=O)c5CO)ccnc4[nH]3)cc2)CC1 [Example J-1, 8-cyclopropyl-4-[3-[2-[4-(4-fluoro-1-methyl-4-piperidyl)phenyl]-1H-pyrrolo[2,3-b]pyridin-4-yl]-2-(hydroxymethyl)phenyl]-2,3-dihydro-1,4-benzoxazepin-5-one] | 179 | 9
12 | CN1CCCC(F)(c2ccc(-c3cc4c(-c5cccc(N6CCOc7cc(C8CC8)ccc7C6=O)c5CO)ccnc4[nH]3)cc2)C1 (stereo not shown) [Example J-2, 8-cyclopropyl-4-[3-[2-[4-(3-fluoro-1-methyl-3-piperidyl)phenyl]-1H-pyrrolo[2,3-b]pyridin-4-yl]-2-(hydroxymethyl)phenyl]-2,3-dihydro-1,4-benzoxazepin-5-one] | 77 | 3.5
13 | Cc1c(-c2ncnc3[nH]c(-c4ccc(C(=O)N5CCN(C)CC5)cc4)cc23)cccc1N1CCOc2cc(C3CC3)ccc2C1=O [Example K-1, 8-cyclopropyl-4-[2-methyl-3-[6-[4-(4-methylpiperazine-1-carbonyl)phenyl]-7H-pyrrolo[2,3-d]pyrimidin-4-yl]phenyl]-2,3-dihydro-1,4-benzoxazepin-5-one] | 147 | 20
14 | Cc1c(-c2ncnc3[nH]c(-c4ccc(C(=O)N5CCC(O)CC5)cc4)cc23)cccc1N1CCOc2cc(C3CC3)ccc2C1=O [Example K-2, 8-cyclopropyl-4-[3-[6-[4-(4-hydroxypiperidine-1-carbonyl)phenyl]-7H-pyrrolo[2,3-d]pyrimidin-4-yl]-2-methyl-phenyl]-2,3-dihydro-1,4-benzoxazepin-5-one] | 815 | 32
15 | Cc1c(-c2ncnc3[nH]c(-c4ccc(C(=O)N5CCC(C)(O)CC5)cc4)cc23)cccc1N1CCOc2cc(C3CC3)ccc2C1=O [Example K-4, 8-cyclopropyl-4-[3-[6-[4-(4-hydroxy-4-methyl-piperidine-1-carbonyl)phenyl]-7H-pyrrolo[2,3-d]pyrimidin-4-yl]-2-methyl-phenyl]-2,3-dihydro-1,4-benzoxazepin-5-one] | 129 | 51
16 | Cc1c(-c2ncnc3[nH]c(-c4ccc(C(=O)N5CCNCC5)cc4)cc23)cccc1N1CCOc2cc(C3CC3)ccc2C1=O [Example K-6, 8-cyclopropyl-4-[2-methyl-3-[6-[4-(piperazine-1-carbonyl)phenyl]-7H-pyrrolo[2,3-d]pyrimidin-4-yl]phenyl]-2,3-dihydro-1,4-benzoxazepin-5-one] | 189 | 9.7
17 | Cc1c(-c2ncnc3[nH]c(-c4ccc(C(=O)N5CCC(O)CC5)cc4)cc23)cccc1N1CCc2cc(C3CC3)ccc2C1=O [Example K-16, 6-cyclopropyl-2-[3-[6-[4-(4-hydroxypiperidine-1-carbonyl)phenyl]-7H-pyrrolo[2,3-d]pyrimidin-4-yl]-2-methyl-phenyl]-3,4-dihydroisoquinolin-1-one] | > 1000 | 21
18 | Cc1c(-c2ncnc3[nH]c(-c4ccc(C(=O)N5CCNCC5)cc4)cc23)cccc1N1CCc2cc(C3CC3)ccc2C1=O [Example K-19, 6-cyclopropyl-2-[2-methyl-3-[6-[4-(piperazine-1-carbonyl)phenyl]-7H-pyrrolo[2,3-d]pyrimidin-4-yl]phenyl]-3,4-dihydroisoquinolin-1-one] | > 1000 | 36
19 | Cc1c(-c2ncnc3[nH]c(-c4ccc(C(=O)N5CCC(O)CC5)cc4)cc23)cccc1-n1ncc2cc(C3CC3)ccc2c1=O [Example K-20, 6-cyclopropyl-2-[3-[6-[4-(4-hydroxypiperidine-1-carbonyl)phenyl]-7H-pyrrolo[2,3-d]pyrimidin-4-yl]-2-methyl-phenyl]phthalazin-1-one] | 195 | 44
20 | NC(=O)c1ccc(-c2cc3c(-c4cccc(N5CCOc6cc(C7CC7)ccc6C5=O)c4CO)ccnc3[nH]2)nc1 [Example K-22, 6-[4-[3-(8-cyclopropyl-5-oxo-2,3-dihydro-1,4-benzoxazepin-4-yl)-2-(hydroxymethyl)phenyl]-1H-pyrrolo[2,3-b]pyridin-2-yl]pyridine-3-carboxamide] | 8 | 2
